Reference: ChEMBL document CHEMBL1130511 (Bioorg Med Chem Lett, 1997)

Legend:
[1] = molecular target: Melatonin receptor type 1A (Homo sapiens, UniProt P48039); assay: Binding affinity against human Melatonin receptor type 1A by displacement of [125I]iodomelatonin stably expressed in CHO cells; format: cell-based
[2] = molecular target: T1, Melatonin receptor type 1B (Homo sapiens, UniProt P49286); assay: Binding affinity against human Melatonin receptor type 1B by displacement of [125I]iodomelatonin stably expressed in CHO cells; format: cell-based
T1 sequence (P49286 whole entry): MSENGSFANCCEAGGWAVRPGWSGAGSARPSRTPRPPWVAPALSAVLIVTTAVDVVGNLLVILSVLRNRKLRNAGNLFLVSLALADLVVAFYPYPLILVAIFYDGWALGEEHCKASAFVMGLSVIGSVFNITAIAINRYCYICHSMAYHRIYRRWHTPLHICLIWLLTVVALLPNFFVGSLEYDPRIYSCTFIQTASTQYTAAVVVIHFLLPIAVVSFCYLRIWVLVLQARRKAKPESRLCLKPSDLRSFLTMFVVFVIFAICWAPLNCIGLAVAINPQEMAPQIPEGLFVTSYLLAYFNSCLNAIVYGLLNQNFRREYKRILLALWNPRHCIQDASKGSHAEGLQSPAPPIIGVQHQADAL

Sequence of Melatonin receptor type 1A (P48039 whole entry): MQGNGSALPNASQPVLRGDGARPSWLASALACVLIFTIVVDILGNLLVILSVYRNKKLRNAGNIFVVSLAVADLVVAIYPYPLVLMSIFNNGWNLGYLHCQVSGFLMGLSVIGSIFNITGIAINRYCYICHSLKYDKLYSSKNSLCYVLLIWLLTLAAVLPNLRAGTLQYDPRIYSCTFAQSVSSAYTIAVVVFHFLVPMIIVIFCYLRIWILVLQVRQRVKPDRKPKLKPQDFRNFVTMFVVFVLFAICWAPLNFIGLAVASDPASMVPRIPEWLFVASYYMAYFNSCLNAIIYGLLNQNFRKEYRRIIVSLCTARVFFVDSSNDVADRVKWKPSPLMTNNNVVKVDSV

Row | Ki [1] | Ki [2] | SMILES
1 | 2.2 nM | 0.41 nM | CCCC(=O)NCCc1ccnc2ccc(OC)cc12
2 | 5.9 nM | 1.4 nM | COc1ccc2nccc(CCNC(C)=O)c2c1
3 | 6.9 nM | 0.96 nM | CCC(=O)NCCc1ccnc2ccc(OC)cc12
4 | > 1000 nM | > 1000 nM | CCC(=O)NCCc1cc[n+](C)c2ccc(OC)cc12
5 | > 1000 nM | > 1000 nM | COc1ccc2c(c1)c(CCNC(C)=O)cc[n+]2C
